Consider 1 compound from ChEMBL document CHEMBL3588795, “GPCR crystal structures: Medicinal chemistry in the pocket” (Bioorg Med Chem, 2015).

pIC50: −log10 of the molar value.

For this assay, the target named is Metabotropic glutamate receptor 1 (Homo sapiens, UniProt Q13255). The experiment in a line: Negative allosteric modulation of human mGluR1alpha expressed in syrian hamster AV-12 cells assessed as inhibition of quisqualate-induced phosphoinositide hydrolysis. In kind it is cell-based, AV12.
Chain of Metabotropic glutamate receptor 1 (Q13255 whole entry): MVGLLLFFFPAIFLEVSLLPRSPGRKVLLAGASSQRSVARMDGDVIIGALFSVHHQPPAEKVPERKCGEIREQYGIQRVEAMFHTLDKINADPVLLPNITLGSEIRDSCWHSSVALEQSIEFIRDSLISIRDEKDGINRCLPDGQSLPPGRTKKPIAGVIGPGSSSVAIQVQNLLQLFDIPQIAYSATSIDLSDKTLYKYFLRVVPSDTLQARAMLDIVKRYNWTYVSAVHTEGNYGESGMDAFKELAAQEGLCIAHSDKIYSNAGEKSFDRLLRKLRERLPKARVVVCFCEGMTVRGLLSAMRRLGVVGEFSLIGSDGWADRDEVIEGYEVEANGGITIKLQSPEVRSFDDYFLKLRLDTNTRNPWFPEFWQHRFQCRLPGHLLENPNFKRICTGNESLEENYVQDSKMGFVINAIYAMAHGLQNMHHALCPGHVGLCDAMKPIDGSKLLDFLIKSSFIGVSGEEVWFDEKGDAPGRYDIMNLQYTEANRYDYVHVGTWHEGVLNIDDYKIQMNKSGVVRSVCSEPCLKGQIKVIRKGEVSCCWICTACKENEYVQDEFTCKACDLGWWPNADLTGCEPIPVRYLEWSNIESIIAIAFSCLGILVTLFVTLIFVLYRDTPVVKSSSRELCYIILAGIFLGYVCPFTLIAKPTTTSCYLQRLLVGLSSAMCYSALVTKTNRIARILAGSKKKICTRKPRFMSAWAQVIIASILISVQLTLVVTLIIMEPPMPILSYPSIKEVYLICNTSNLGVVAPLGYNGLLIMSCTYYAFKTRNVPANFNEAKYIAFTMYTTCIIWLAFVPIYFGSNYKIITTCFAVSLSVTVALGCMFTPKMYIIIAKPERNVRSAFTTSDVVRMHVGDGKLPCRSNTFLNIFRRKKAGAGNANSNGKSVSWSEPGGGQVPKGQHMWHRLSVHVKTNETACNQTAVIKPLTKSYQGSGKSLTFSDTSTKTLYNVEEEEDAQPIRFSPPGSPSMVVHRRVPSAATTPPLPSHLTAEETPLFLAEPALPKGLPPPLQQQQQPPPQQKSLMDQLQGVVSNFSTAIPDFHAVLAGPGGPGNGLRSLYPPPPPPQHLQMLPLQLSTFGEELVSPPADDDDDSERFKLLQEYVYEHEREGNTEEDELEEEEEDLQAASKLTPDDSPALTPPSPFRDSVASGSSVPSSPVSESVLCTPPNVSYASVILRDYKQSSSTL

As usually defined, the pIC50 is the negative decadic logarithm of the IC50, by convention in mol/L. In the case of `Cc1cc(C(=O)O)ccc1[C@H](N)C(=O)O`, the pIC50 is 5.10.
